The values below come from patent publication EP0037781A1, “Phenyl alcoxy propanol amines, their preparation and their use as medicines” (PIERRE FABRE S.A., priority 1980, dated 1981).

Converted amounts (≈) assume the structure as drawn. Where a name gives a salt, the structure may show the parent alone.

A short description of this data set: Solubility (Solubilités) in water and dimethyl sulfoxide. It is filed as physicochemical. Particulars: for solubility in dimethyl sulfoxide: diméthylsulfoxyde; for solubility: water, eau, read-out: Solubilités : Soluble dans l'eau.

With `Cc1cccc(COCC(O)CNC(C)C)c1` (stereo not shown) [Exemple 1, isopropylamino-3, m-tolyl méthoxy-1 propanol-2 fumarate], the “solubility in dimethyl sulfoxide” value came to 15% and the solubility is 100 mg/mL. Consider `Cc1cccc(COCC(O)CNC(C)(C)C)c1` (stereo not shown) [Exemple 2, tertiobutvlamino-3 métatol lméthoxy-1 propanol-2 maléate], for which the “solubility in dimethyl sulfoxide” value was found to be 10% and the solubility was 25 mg/mL (≈ 99.5 mM). Regarding `COc1ccccc1COCC(O)CNC(C)C` (stereo not shown) [Exemple 3, isopropylamino-3 (orthométhoxy benzyloxy) 1 propanol-2 fumarate], the “solubility in dimethyl sulfoxide” value amounted to 15% and the solubility came to 100 mg/mL. In the case of `COc1ccccc1COCC(O)CNC(C)(C)C` (stereo not shown) [Exemple 4, tertiobutylamino-3 (orthométhoxy benzyloxy)-1 propanol-2 maléate], the “solubility in dimethyl sulfoxide” value came to 15% and the solubility came to 100 mg/mL (≈ 374 mM). As to `COc1cccc(COCC(O)CNC(C)(C)C)c1` (stereo not shown) [Exemple 5, tertiobutylamino-3 (métaméthoxybenzyloxy)-1 propanol-2 maléate], the “solubility in dimethyl sulfoxide” value came to 12% and the solubility is 100 mg/mL (≈ 374 mM). Taken in the same sequence, the figures for `COc1ccc(COCC(O)CNC(C)(C)C)cc1` (stereo not shown) [Exemple 6, tertiobutylamino-3 (paraméthoxy benzyloxy)-1 propanol-2 maléate] were 20% and 100 mg/mL (≈ 374 mM).

As for `CC(C)(C)NCC(O)COCc1cccc(OCc2ccccc2)c1` (stereo not shown) [Exemple 7, tertiobutylamino-3 métabenzyloxy-benzyloxy-1 propanol-2 maléate], the “solubility in dimethyl sulfoxide” value came out at 20% and the solubility turned out to be 2 mg/mL (≈ 5.82 mM). Taken in the same sequence, the figures for `CC(C)NCC(O)COCc1cccc2ccccc12` (stereo not drawn) [Exemple 8, isopropylamino-3 (alpha-naphtyl méthoxy)-1 propanol-2 fumarate] were 8% and 14 mg/mL. For the molecule `CC(C)(C)NCC(O)COCc1cccc2ccccc12` (stereo not drawn) [Exemple 9, tertiobutylamino-3 (alpha-naphtyl méthoxy)-1 propanol-2 fumarate], the “solubility in dimethyl sulfoxide” value worked out at 15% and the solubility amounted to 100 mg/mL. Regarding `CC(C)NCC(O)COCCCc1ccccc1` (stereo not shown) [Exemple 10, isopropylamino-3(phényl-3 propoxy)-1 pro^panol-2 fumarate], the “solubility in dimethyl sulfoxide” value was found to be 12% and the solubility stood at 100 mg/mL. In the case of `CC(C)(C)NCC(O)COCCCc1ccccc1` (stereo not shown) [Exemple 11, tertiobutylamino-3 phényl-3 propoxy)-1 propanol-2 fumarate], the “solubility in dimethyl sulfoxide” value amounted to 15% and the solubility came out at 100 mg/mL. On to `CC(C)(C)NCC(O)COC/C=C/c1ccccc1` (stereo not shown) [Exemple 12, tertiobutylamino-3 (phényl-3 propène-2 yl-1) oxy-1 ^propanol-2 maléate], for which the “solubility in dimethyl sulfoxide” value was found to be 15% and the solubility turned out to be 10 mg/mL (≈ 38 mM). The like results for `CC(C)(C)NCC(O)COC1Cc2ccccc2C1` (stereo not shown) [Exemple 14, tertiobutylamino-3 (indanyl-2 oxy)-1 propanol-2 maléate] were, in that order, 10% and 100 mg/mL (≈ 380 mM). In the case of `CC(C)NCC(O)COC1CCCc2ccccc21` (stereo not shown) [Exemple 15, isopropylamino-3 (tétrahydro 1,2,3,4 naphtyloxy-1)-1 propanol-2 fumarate], the solubility amounted to 30 mg/mL. Consider `CC(C)(C)NCC(O)COC1CCCc2ccccc21` (stereo not shown) [Exemple 16, tertiobutylamino-3 (tétrahydro 1,2,3,4 naphtoxy-1)-1 pro^panol-2 maléate], for which the solubility is 20 mg/mL (≈ 72.1 mM).
